Assay results: EP0114128A1, “3-Amino-2-oxo-azetidine derivatives containing in position 1 a nitrogen heterocyclic radical, process for their preparation, their use as therapeutical agents and intermediates for their preparation” (priority 1983, dated 1984)
Converted amounts (≈) assume the structure as drawn. Like-named read-outs stand apart in the source and are kept apart here.

What was measured:
Assay in all cases: In vitro activity, dilution method in liquid medium (MIC)
Type in all cases: cell-based
[1] = test system: Enterobacter cloacae 1321 E; settings: read-out: concentrations minimales inhibitrices (C. M. I.)
Protocol: (§1) Etude pharmacologiaue des produits de l'invention. Activité in vitro, méthode des dilutions en milieu liquide.
(§2) On prépare une série de tubes dans lesquels on répartit une même quantité de milieu nutritif stérile. On distribue dans chaque tube des quantités croissantes du produit à étudier, puis chaque tube est ensemencé avec une souche bactérienne. Après incubation de vingt-quatre ou quarante-huit heures à l'étuve à 37°C, l'inhibition de la croissance est appréciée par transillumination ce qui permet de déterminer les concentrations minimales inhibitrices (C. M. I.) exprimées en µg/cm3.

Escherichia Coli 078 = settings: read-out: concentrations minimales inhibitrices (C. M. I.)
Protocol: as §1, §2

Escherichia Coli 1507 E = settings: COLI1507E, read-out: concentrations minimales inhibitrices (C. M. I.)
Protocol: as §1, §2

Escherichia Coli 1894 = settings: read-out: concentrations minimales inhibitrices (C. M. I.)
Protocol: as §1, §2

Escherichia Coli DC0 = settings: read-out: concentrations minimales inhibitrices (C. M. I.)
Protocol: as §1, §2

Escherichia Coli DC2 = settings: read-out: concentrations minimales inhibitrices (C. M. I.)
Protocol: as §1, §2

Escherichia Coli TEM = settings: read-out: concentrations minimales inhibitrices (C. M. I.)
Protocol: as §1, §2

[2] = test system: Klebsiella Aeruginosa 1522 E; settings: read-out: concentrations minimales inhibitrices (C. M. I.)
Protocol: as §1, §2

[3] = test system: Klebsiella pneumonae 52145; settings: read-out: concentrations minimales inhibitrices (C. M. I.)
Protocol: as §1, §2

Proteus mirabilis A 235 = settings: read-out: concentrations minimales inhibitrices (C. M. I.)
Protocol: as §1, §2

Proteus vulgaris A 232 = settings: read-out: concentrations minimales inhibitrices (C. M. I.)
Protocol: as §1, §2

Providencia DU 48 = settings: read-out: concentrations minimales inhibitrices (C. M. I.)
Protocol: as §1, §2

[4] = test system: Salmonella typhimurium MZ 11; settings: Salmonella enterica, read-out: concentrations minimales inhibitrices (C. M. I.)
Protocol: as §1, §2

Serratia marcesceus 2532 = settings: read-out: concentrations minimales inhibitrices (C. M. I.)
Protocol: as §1, §2

[5] = test system: Pseudomonas aeruginosa 1771 m; settings: read-out: concentrations minimales inhibitrices (C. M. I.)
Protocol: as §1, §2

[6] = COLI078, 24 H incubation at 37°C
[7] = COLI078, 48 H incubation at 37°C
[8] = COLI1894, 24 H incubation at 37°C
[9] = COLI1894, 48 H incubation at 37°C
[10] = COLIDC0, 24 H incubation at 37°C
[11] = COLIDC0, 48 H incubation at 37°C
[12] = COLIDC2, 24 H incubation at 37°C
[13] = COLIDC2, 48 H incubation at 37°C

With C[C@@H]1[C@H](NC(=O)/C(=N\OC(F)F)c2csc(N)n2)C(=O)N1c1nn[nH]n1 (racemic) [Prod. ex. 4] the MIC ([1]; 24 H incubation at 37°C) was 1.2 µg/mL (≈ 3.1 µM), the MIC ([1]; 48 H incubation at 37°C) was 1.2 µg/mL (≈ 3.1 µM) and the MIC (Escherichia Coli 078; [6]) was 0.3 µg/mL (≈ 0.775 µM). It also gave an MIC (Escherichia Coli 078; [7]) of 0.3 µg/mL (≈ 0.775 µM), an MIC (Escherichia Coli 1507 E; 24 H incubation at 37°C) of 0.15 µg/mL (≈ 0.387 µM) and an MIC (Escherichia Coli 1507 E; 48 H incubation at 37°C) of 0.15 µg/mL (≈ 0.387 µM). The MIC (Escherichia Coli 1894; [8]) was ≤ 0.04 µg/mL, the MIC (Escherichia Coli 1894; [9]) was ≤ 0.04 µg/mL and the MIC (Escherichia Coli DC0; [10]) was 1.2 µg/mL (≈ 3.1 µM). The MIC (Escherichia Coli DC0; [11]) was 1.2 µg/mL (≈ 3.1 µM), the MIC (Escherichia Coli DC2; [12]) was ≤ 0.04 µg/mL and the MIC (Escherichia Coli DC2; [13]) was ≤ 0.04 µg/mL. For the same compound, the MIC (Escherichia Coli TEM; 24 h) was 0.6 µg/mL (≈ 1.55 µM), the MIC (Escherichia Coli TEM; 48 h) was 1.2 µg/mL (≈ 3.1 µM) and the MIC ([2]; 24 H incubation at 37°C) was 1.2 µg/mL (≈ 3.1 µM). For the same compound, the MIC ([2]; 48 H incubation at 37°C) was 1.2 µg/mL (≈ 3.1 µM), the MIC ([3]; 24 H incubation at 37°C) was 5 µg/mL (≈ 12.9 µM) and the MIC ([3]; 48 H incubation at 37°C) was 5 µg/mL (≈ 12.9 µM). The MIC (Proteus mirabilis A 235; A235, 24 H incubation at 37°C) was 0.3 µg/mL (≈ 0.775 µM), the MIC (Proteus mirabilis A 235; A235, 48 H incubation at 37°C) was 0.3 µg/mL (≈ 0.775 µM) and the MIC (Proteus vulgaris A 232; A232, 24 H incubation at 37°C) was 0.3 µg/mL (≈ 0.775 µM). For the same compound, the MIC (Proteus vulgaris A 232; A232, 48 H incubation at 37°C) was 0.3 µg/mL (≈ 0.775 µM), the MIC (Providencia DU 48; DU48, 24 H incubation at 37°C) was 2.5 µg/mL (≈ 6.45 µM) and the MIC (Providencia DU 48; DU48, 48 H incubation at 37°C) was 2.5 µg/mL (≈ 6.45 µM). The MIC ([4]; 24 H incubation at 37°C) was 1.2 µg/mL (≈ 3.1 µM), the MIC ([4]; 48 H incubation at 37°C) was 1.2 µg/mL (≈ 3.1 µM) and the MIC (Serratia marcesceus 2532; 24 H incubation at 37°C) was 20 µg/mL (≈ 51.6 µM). It also gave an MIC (Serratia marcesceus 2532; 48 H incubation at 37°C) of 20 µg/mL (≈ 51.6 µM).

In the case of C[C@@H]1[C@H](NC(=O)/C(=N\OCC(=O)O)c2csc(N)n2)C(=O)N1c1nn[nH]n1 (racemic) [Prod. ex. 6, (3SR, 4RS) 3-//2-(2-aminothiazol-4-yl) 2/-(carboxyméthoxy) imino/acétyl/amino/ 4-méthyl 1-(1H-tétrazol-5-yl) 2-azétidinone isomère syn], the MIC ([1]; 24 H incubation at 37°C) is reported as 0.3 µg/mL (≈ 0.759 µM), the MIC ([1]; 48 H incubation at 37°C) is reported as 0.6 µg/mL (≈ 1.52 µM) and the MIC (Escherichia Coli 078; [6]) is reported as 0.3 µg/mL (≈ 0.759 µM). It also gave an MIC (Escherichia Coli 078; [7]) of 0.3 µg/mL (≈ 0.759 µM), an MIC (Escherichia Coli 1507 E; 24 H incubation at 37°C) of 0.6 µg/mL (≈ 1.52 µM) and an MIC (Escherichia Coli 1507 E; 48 H incubation at 37°C) of 0.6 µg/mL (≈ 1.52 µM). It also gave an MIC (Escherichia Coli 1894; [8]) of 0.6 µg/mL (≈ 1.52 µM), an MIC (Escherichia Coli 1894; [9]) of 0.6 µg/mL (≈ 1.52 µM) and an MIC (Escherichia Coli DC0; [10]) of 0.6 µg/mL (≈ 1.52 µM). The MIC (Escherichia Coli DC0; [11]) was 0.6 µg/mL (≈ 1.52 µM), the MIC (Escherichia Coli DC2; [12]) was 0.3 µg/mL (≈ 0.759 µM) and the MIC (Escherichia Coli DC2; [13]) was 0.3 µg/mL (≈ 0.759 µM). The MIC (Escherichia Coli TEM; 24 h) was 0.6 µg/mL (≈ 1.52 µM), the MIC (Escherichia Coli TEM; 48 h) was 0.6 µg/mL (≈ 1.52 µM) and the MIC ([2]; 24 H incubation at 37°C) was 0.6 µg/mL (≈ 1.52 µM). The MIC ([2]; 48 H incubation at 37°C) was 0.6 µg/mL (≈ 1.52 µM), the MIC ([3]; 24 H incubation at 37°C) was 2.5 µg/mL (≈ 6.32 µM) and the MIC ([3]; 48 H incubation at 37°C) was 2.5 µg/mL (≈ 6.32 µM). The MIC (Proteus mirabilis A 235; A235, 24 H incubation at 37°C) was 0.15 µg/mL (≈ 0.379 µM), the MIC (Proteus mirabilis A 235; A235, 48 H incubation at 37°C) was 0.15 µg/mL (≈ 0.379 µM) and the MIC (Proteus vulgaris A 232; A232, 24 H incubation at 37°C) was 0.08 µg/mL (≈ 0.202 µM). It also gave an MIC (Proteus vulgaris A 232; A232, 48 H incubation at 37°C) of 0.15 µg/mL (≈ 0.379 µM), an MIC (Providencia DU 48; DU48, 24 H incubation at 37°C) of 0.6 µg/mL (≈ 1.52 µM) and an MIC (Providencia DU 48; DU48, 48 H incubation at 37°C) of 0.6 µg/mL (≈ 1.52 µM). For the same compound, the MIC ([5]; 24 H incubation at 37°C) was 2.5 µg/mL (≈ 6.32 µM), the MIC ([5]; 48 H incubation at 37°C) was 5 µg/mL (≈ 12.6 µM) and the MIC ([4]; 24 H incubation at 37°C) was 0.6 µg/mL (≈ 1.52 µM). For the same compound, the MIC ([4]; 48 H incubation at 37°C) was 0.6 µg/mL (≈ 1.52 µM), the MIC (Serratia marcesceus 2532; 24 H incubation at 37°C) was 2.5 µg/mL (≈ 6.32 µM) and the MIC (Serratia marcesceus 2532; 48 H incubation at 37°C) was 5 µg/mL (≈ 12.6 µM).
